Reference: patent US6100239A, “13-membered ring macrolide compound, medicine containing the same, and process for producing the same” (Chugai Seiyaku Kabushiki Kaisha, priority 1996, dated 2000)

Biological target: T1, Motilin receptor (Oryctolagus cuniculus, UniProt G1T803)
T1 construct: homogenized in a 50 mM Tris solution (pH 7.4) to prepare a protein solution; from tissue; host or cells: rabbit duodenum (mucous membrane detached from the tunica muscularis, then homogenized)
Test: Motilin receptor binding test (125I-labeled motilin)
Conditions: rabbit duodenum tunica muscularis homogenate; 25 pM 125I-labeled motilin; 25° C., 120 minutes; test drug in DMSO (final 1%); read-out: IC50, the concentration of the test drug which reduces the specific binding capacity to 50%
Procedure: Motilin receptor binding test was carried out by the method shown below (see V. Bormans, et al., Regul, Peptides, 15, 143 (1986)). From a slaughtered rabbit was removed the duodenum, of which the mucous membrane was detached from the tunica muscularis and then homogenized in a 50 mM Tris solution (pH 7.4) to prepare a protein solution. After incubating 25 pM ^125 I-labeled motilin (available from Otsuka Assay Laboratory) and the protein solution at 25° C. for 120 minutes, radioactivity in the protein solution was measured with a γ-ray counter. The difference between the radioactivity observed in the case of non-addition of motilin and that observed in the case of addition of an excess (1×10^-7 M) of motilin was defined as the specific binding capacity. The efficacy of the sample was expressed as IC50, the concentration of the test drug which reduces the specific binding capacity to 50%. The test drug was dissolved in a DMSO solution and added to the protein solution (the final DMSO concentration: 1%).

T1 sequence (G1T803 1-400): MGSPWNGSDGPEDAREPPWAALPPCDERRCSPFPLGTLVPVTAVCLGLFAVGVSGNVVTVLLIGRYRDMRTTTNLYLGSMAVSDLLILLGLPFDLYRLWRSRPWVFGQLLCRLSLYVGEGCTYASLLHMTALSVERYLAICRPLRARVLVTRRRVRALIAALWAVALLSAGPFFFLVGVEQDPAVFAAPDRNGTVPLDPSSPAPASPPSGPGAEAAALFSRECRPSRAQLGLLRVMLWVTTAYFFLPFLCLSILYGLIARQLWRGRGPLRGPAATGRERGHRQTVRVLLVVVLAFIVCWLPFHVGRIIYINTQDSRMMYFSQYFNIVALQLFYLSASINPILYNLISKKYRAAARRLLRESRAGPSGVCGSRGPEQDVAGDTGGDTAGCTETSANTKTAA

IC50: 5.7 nM
SMILES: COC1(C)CC(OC2C(C)C(=O)OC(C)C(=O)C(C)C3=C(C)CC(C)(O3)C(OC3OC(C)CC(N(C)C)C3O)C2C)OC(C)C1O (stereo not shown) [Compound 4]
